Where a SMILES comes first, the peptide text is derived from it. [ ]: non-standard residue; d: D form. The star is where a group is joined. NHCH2CH2OH = OCCN*; For = O=C*
Tests used:
[1] = H+/Na+ transport assay of bead-derived peptides (one-point); type: biochemical; design: key: relative activity; mean of two control wells = 1.00; conditions: bead-derived peptide solution, EYPC/EYPG LUVs;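 further: relative to parent gramicidin A activity set to 1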
How it was run: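 H+/Na+ transport is monitored through pyranine fluorescence in freshly extruded LUVs after a 30-min room-temperature vortex with each library peptide at a single concentration. Signals are normalized to detergent (Triton X-100) and untreated controls.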

[2] = tested on: P388 mouse leukemia cells; conditions: 92 h
How it was run: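 Peptide stocks diluted 250× in growth medium; P388 cells 1 × 10^4 cells/mL final; 37 °C, 5% CO2, 92 h. WST-1 + 1-methoxy PMS, 4 h, A415. Output: % viability.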

[3] = tested on: Streptococcus pyogenes SSI-9; assay: Antibacterial activity assay of bead-derived peptides (three concentrations); type: cell-based; design: key: +++: inhibition by the 640-fold diluted peptide solution; ++: inhibition by the 160-fold diluted solution; +: inhibition by the 40-fold diluted solution; -: no inhibition; conditions: S. pyogenes, bead-derived peptide solution, three concentrations
How it was run: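 Growth inhibition scored visually as precipitated bacteria after 37 °C, 18 h incubation. Streptococcus pyogenes SSI-9 inoculum of 2 × 10^5 CFU in Ca2+/Mg2+-adjusted Mueller Hinton broth plus 5% laked horse blood; peptides tested at three levels: stock, 4-fold and 16-fold DMSO dilutions.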

| SMILES | H+/Na+ transport activity normalized against the value of 1 (1.00) [1] | cell viability/% [2] | antibacterial activity [3] |
| --- | --- | --- | --- |
| CC(C)C[C@@H](NC(=O)[C@H](C)NC(=O)[C@H](NC(=O)[C@H](C)NC(=O)CNC(=O)[C@@H](NC=O)C(C)C)C(C)C)C(=O)N[C@H](C(=O)N[C@@H](C(=O)N[C@@H](Cc1c[nH]c2ccccc12)C(=O)N[C@H](CC(C)C)C(=O)N[C@@H](Cc1c[nH]c2ccccc12)C(=O)N[C@@H](C(=O)N[C@@H](Cc1c[nH]c2ccccc12)C(=O)N[C@H](CC(C)C)C(=O)N[C@@H](Cc1c[nH]c2ccccc12)C(=O)NCCO)C(C)C)C(C)C)C(C)C [compound 5241] (For-VGA[dV]A[dL]V[dV]W[dL]W[dV]W[dL]W-NHCH2CH2OH) | 1.39 | 12.2% | ++ |
| CC(C)C[C@@H](NC(=O)[C@H](Cc1c[nH]c2ccccc12)NC(=O)[C@H](NC(=O)[C@H](Cc1c[nH]c2ccccc12)NC(=O)[C@H](NC(=O)[C@@H](NC(=O)[C@H](NC(=O)[C@H](C)NC(=O)[C@H](NC(=O)[C@H](C)NC(=O)CNC(=O)[C@@H](NC=O)C(C)C)[C@H](C)O)C(C)C)C(C)C)C(C)C)C(C)C)C(=O)N[C@@H](Cc1c[nH]c2ccccc12)C(=O)N[C@@H](C(=O)N[C@@H](Cc1c[nH]c2ccccc12)C(=O)NCCO)C(C)C [compound 10653] (For-VGA[dT]A[dV]V[dV]W[dV]W[dL]W[dV]W-NHCH2CH2OH) | 1.04 | 44.1% | - |
| CC(C)C[C@@H](NC(=O)[C@H](C)NC(=O)CNC(=O)[C@@H](NC=O)C(C)C)C(=O)N[C@@H](C)C(=O)N[C@H](CC(C)C)C(=O)N[C@H](C(=O)N[C@@H](C(=O)N[C@@H](Cc1c[nH]c2ccccc12)C(=O)N[C@H](CC(C)C)C(=O)N[C@@H](Cc1c[nH]c2ccccc12)C(=O)N[C@H](CC(C)C)C(=O)N[C@@H](Cc1c[nH]c2ccccc12)C(=O)N[C@@H](C(=O)N[C@@H](Cc1c[nH]c2ccccc12)C(=O)NCCO)C(C)C)[C@H](C)O)C(C)C [compound 11295] (For-VGA[dL]A[dL]V[dT]W[dL]W[dL]W[dV]W-NHCH2CH2OH) | 1.12 | 78.1% | - |
| CC(C)C[C@@H](NC(=O)[C@H](C)NC(=O)[C@H](NC(=O)[C@H](C)NC(=O)CNC(=O)[C@@H](NC=O)C(C)C)C(C)C)C(=O)N[C@H](C(=O)N[C@@H](C(=O)N[C@@H](Cc1c[nH]c2ccccc12)C(=O)N[C@H](CC(C)C)C(=O)N[C@@H](Cc1c[nH]c2ccccc12)C(=O)N[C@@H](C(=O)N[C@@H](Cc1c[nH]c2ccccc12)C(=O)N[C@@H](C(=O)N[C@@H](Cc1c[nH]c2ccccc12)C(=O)NCCO)C(C)C)C(C)C)[C@H](C)O)C(C)C [compound 3375] (For-VGA[dV]A[dL]V[dT]W[dL]W[dV]W[dV]W-NHCH2CH2OH) | 1.29 | 100.0% | - |
| CC(C)C[C@@H](NC(=O)[C@H](C)NC(=O)CNC(=O)[C@@H](NC=O)C(C)C)C(=O)N[C@@H](C)C(=O)N[C@H](CC(C)C)C(=O)N[C@H](C(=O)N[C@H](CC(C)C)C(=O)N[C@@H](Cc1c[nH]c2ccccc12)C(=O)N[C@@H](C(=O)N[C@@H](Cc1c[nH]c2ccccc12)C(=O)N[C@@H](C(=O)N[C@@H](Cc1c[nH]c2ccccc12)C(=O)N[C@@H](C(=O)N[C@@H](Cc1c[nH]c2ccccc12)C(=O)NCCO)C(C)C)C(C)C)C(C)C)C(C)C [compound 5611] (For-VGA[dL]A[dL]V[dL]W[dV]W[dV]W[dV]W-NHCH2CH2OH) | 1.17 | 3.9% | + |
| CNC(=O)C[C@@H](NC(=O)[C@@H](NC(=O)[C@@H](CC(C)C)NC(=O)[C@H](C)NC(=O)[C@@H](CC(C)C)NC(=O)[C@H](C)NC(=O)CNC(=O)[C@@H](NC=O)C(C)C)C(C)C)C(=O)N[C@@H](Cc1c[nH]c2ccccc12)C(=O)N[C@H](CC(C)C)C(=O)N[C@@H](Cc1c[nH]c2ccccc12)C(=O)N[C@@H](C(=O)N[C@@H](Cc1c[nH]c2ccccc12)C(=O)N[C@H](CC(C)C)C(=O)N[C@@H](Cc1c[nH]c2ccccc12)C(=O)NCCO)C(C)C [compound 2953] (For-VGA[dL]A[dL]V[dD](NHMe)W[dL]W[dV]W[dL]W-NHCH2CH2OH) | 1.20 | 100.0% | - |
| CC(C)C[C@@H](NC(=O)[C@H](Cc1c[nH]c2ccccc12)NC(=O)[C@H](NC(=O)[C@H](Cc1c[nH]c2ccccc12)NC(=O)[C@@H](CC(C)C)NC(=O)[C@@H](NC(=O)[C@H](NC(=O)[C@H](C)NC(=O)[C@H](NC(=O)[C@H](C)NC(=O)CNC(=O)[C@@H](NC=O)C(C)C)C(C)C)C(C)C)C(C)C)C(C)C)C(=O)N[C@@H](Cc1c[nH]c2ccccc12)C(=O)N[C@@H](C(=O)N[C@@H](Cc1c[nH]c2ccccc12)C(=O)NCCO)C(C)C [compound 5526] (For-VGA[dV]A[dV]V[dL]W[dV]W[dL]W[dV]W-NHCH2CH2OH) | 1.17 | 100.0% | + |
| CC(C)C[C@@H](NC(=O)[C@H](C)NC(=O)[C@H](NC(=O)[C@H](C)NC(=O)CNC(=O)[C@@H](NC=O)C(C)C)C(C)C)C(=O)N[C@H](C(=O)N[C@@H](C(=O)N[C@@H](Cc1c[nH]c2ccccc12)C(=O)N[C@H](CC(C)C)C(=O)N[C@@H](Cc1c[nH]c2ccccc12)C(=O)N[C@H](CC(C)C)C(=O)N[C@@H](Cc1c[nH]c2ccccc12)C(=O)N[C@@H](C(=O)N[C@@H](Cc1c[nH]c2ccccc12)C(=O)NCCO)C(C)C)C(C)C)C(C)C [compound 5872] (For-VGA[dV]A[dL]V[dV]W[dL]W[dL]W[dV]W-NHCH2CH2OH) | 1.02 | 9.9% | + |
| CC(C)C[C@@H](NC(=O)[C@H](C)NC(=O)[C@H](NC(=O)[C@H](C)NC(=O)CNC(=O)[C@@H](NC=O)C(C)C)C(C)C)C(=O)N[C@H](C(=O)N[C@@H](C(=O)N[C@@H](Cc1c[nH]c2ccccc12)C(=O)N[C@@H](C(=O)N[C@@H](Cc1c[nH]c2ccccc12)C(=O)N[C@H](CC(C)C)C(=O)N[C@@H](Cc1c[nH]c2ccccc12)C(=O)N[C@@H](C(=O)N[C@@H](Cc1c[nH]c2ccccc12)C(=O)NCCO)C(C)C)C(C)C)[C@H](C)O)C(C)C [compound 4710] (For-VGA[dV]A[dL]V[dT]W[dV]W[dL]W[dV]W-NHCH2CH2OH) | 1.06 | 100.0% | - |
| CC(C)C[C@@H](NC(=O)[C@H](Cc1c[nH]c2ccccc12)NC(=O)[C@@H](CC(C)C)NC(=O)[C@@H](NC(=O)[C@H](NC(=O)[C@H](C)NC(=O)[C@H](NC(=O)[C@H](C)NC(=O)CNC(=O)[C@@H](NC=O)C(C)C)C(C)C)C(C)C)C(C)C)C(=O)N[C@@H](Cc1c[nH]c2ccccc12)C(=O)N[C@@H](C(=O)N[C@@H](Cc1c[nH]c2ccccc12)C(=O)N[C@@H](C(=O)N[C@@H](Cc1c[nH]c2ccccc12)C(=O)NCCO)C(C)C)[C@H](C)O [compound 5311] (For-VGA[dV]A[dV]V[dL]W[dL]W[dT]W[dV]W-NHCH2CH2OH) | 1.15 | 100.0% | + |
| CC(C)C[C@@H](NC(=O)[C@H](C)NC(=O)[C@H](NC(=O)[C@H](C)NC(=O)CNC(=O)[C@@H](NC=O)C(C)C)[C@H](C)O)C(=O)N[C@H](C(=O)N[C@H](CC(C)C)C(=O)N[C@@H](Cc1c[nH]c2ccccc12)C(=O)N[C@@H](C(=O)N[C@@H](Cc1c[nH]c2ccccc12)C(=O)N[C@H](CC(C)C)C(=O)N[C@@H](Cc1c[nH]c2ccccc12)C(=O)N[C@@H](C(=O)N[C@@H](Cc1c[nH]c2ccccc12)C(=O)NCCO)C(C)C)[C@H](C)O)C(C)C [compound 367] (For-VGA[dT]A[dL]V[dL]W[dT]W[dL]W[dV]W-NHCH2CH2OH) | 1.24 | 100.0% | - |
| CC(C)C[C@@H](NC(=O)[C@H](C)NC(=O)CNC(=O)[C@@H](NC=O)C(C)C)C(=O)N[C@@H](C)C(=O)N[C@H](CC(C)C)C(=O)N[C@H](C(=O)N[C@H](CC(C)C)C(=O)N[C@@H](Cc1c[nH]c2ccccc12)C(=O)N[C@H](CC(C)C)C(=O)N[C@@H](Cc1c[nH]c2ccccc12)C(=O)N[C@@H](C(=O)N[C@@H](Cc1c[nH]c2ccccc12)C(=O)N[C@H](CC(C)C)C(=O)N[C@@H](Cc1c[nH]c2ccccc12)C(=O)NCCO)C(C)C)C(C)C [compound 646] (For-VGA[dL]A[dL]V[dL]W[dL]W[dV]W[dL]W-NHCH2CH2OH) | 1.11 | 0.2% | + |
| CC(C)C[C@@H](NC(=O)[C@H](Cc1c[nH]c2ccccc12)NC(=O)[C@H](NC(=O)[C@H](Cc1c[nH]c2ccccc12)NC(=O)[C@H](NC(=O)[C@H](Cc1c[nH]c2ccccc12)NC(=O)[C@H](NC(=O)[C@@H](NC(=O)[C@H](NC(=O)[C@H](C)NC(=O)[C@H](NC(=O)[C@H](C)NC(=O)CNC(=O)[C@@H](NC=O)C(C)C)C(C)C)[C@H](C)O)C(C)C)C(C)C)C(C)C)C(C)C)C(=O)N[C@@H](Cc1c[nH]c2ccccc12)C(=O)NCCO [compound 5164] (For-VGA[dV]A[dT]V[dV]W[dV]W[dV]W[dL]W-NHCH2CH2OH) | 1.19 | 100.0% | - |

Source: article PMC7531004, “Discovery of gramicidin A analogues with altered activities by multidimensional screening of a one-bead-one-compound library” (Nature Communications, 2020)
